“Also recorded” adds a separate entry of the source. Like-named read-outs stand apart in the source and are kept apart here.
Columns and labels:
[1] = system: AS283 cells; experiment: Cell Culture Study II: MTX cytotoxicity, CellTiter-Glo; format: cell-based, human; settings: TK-112690 1, 10, 100 μM with MTX 0.01-100 μM, 72 hours
Protocol: In this study, AS283 cells were grown in RPMI-1640 supplemented with L-glutamine dipeptide, sodium pyruvate, HEPES, and 10% FBS. AS283 cells were used to seed three 96-well plates with 10,000 cells/well in a total volume of 50 μL. Medium alone wells were seeded 100 μL medium. Plates were incubated overnight. The following day, 25 μL of the TK-112690 and MTX stock solutions were added to the appropriate wells. TK-112690 was added first, followed by MTX in all wells. 25 μL of vehicle was added to TK-112690 alone wells. 25 μL of vehicle and 25 μL medium were added to vehicle control wells, and 50 μL medium was added to cell control wells. Cell viability was measured using CellTiter-Glo and DOX (10 μM) was used as a reference standard. The plates were incubated at 37° C., 5% CO2 for 72 hours then removed from the incubator and placed on the bench at room temperature for 30 min. The plates were not stacked or shaken. […] Luminescence was recorded on TriLux. […]
AS283 cells were grown in RPMI-1640 supplemented with L-glutamine dipeptide, sodium pyruvate, HEPES, and 10% FBS. […] Cell viability was measured using CellTiter-Glo and DOX (10 μM) was used as a reference standard.
The plates were incubated at 37° C., 5% CO2 for 72 hours then removed from the incubator and placed on the bench at room temperature for 30 min. […] Luminescence was recorded on TriLux.

[2] = molecular target: mouse small intestinal UPase enzyme (Mus musculus, UniProt P52624); experiment: UPase inhibition in mouse small intestinal tissue homogenate (HPLC of uracil); format: biochemical
Protocol: A range of TK-112690 doses were studied for the their ability to prevent metabolic breakdown of uridine through the in vitro inhibition of mouse and human small intestinal UPase enzyme. UPase activity was determined by HPLC analysis using UV detection of uracil concentration (UPase catabolizes uridine into uracil and ribose-1-phosphate). The UPase enzyme material was prepared from homogenized mouse and human being small intestinal tissue. TK-112690 was dissolved in water (50 mg/ml) and analyzed for UPase inhibition in aqueous solution containing 5 mM uridine, 0.01 M Tris, 0.01 M phosphate, 1 mM EDTA, and 1 mM DTT. Reactions were performed at 37° C. at pH of 7.3.
The aim of this study was to evaluate TK-112690 […] as an inhibitor of uridine phosphorylase (UPase) enzyme activity. The range of TK-112690 doses studied for ability to prevent metabolic breakdown of uridine, through the in vitro inhibition of mouse and human small intestinal UPase enzyme, was 0, 0.1, 0.5, 1, 5, 10, 50, 100, 500, 1000, 5000 and 10000 μM). Detection of UPase activity was determined by HPLC analysis using UV detection of uracil concentration (UPase catabolizes uridine into uracil and ribose-1-phosphate).
The UPase enzyme material was prepared from homogenized mouse and human being small intestinal tissue. TK-112690 was dissolved in water (50 mg/ml) and analyzed for UPase inhibition in aqueous solution containing 5 mM uridine, 0.01 M Tris, 0.01 M phosphate, 1 mM EDTA, and 1 mM DTT. Reactions were performed at 37° C. at pH of 7.3.
TK-11260 inhibition of mouse and human UPase was analyzed by reverse phase HPLC using UV detection. HPLC analysis was performed at ambient temperature with a Water 2695 Alliance system equipped with a C18 ECONOSIL 5 U ALLtech column. 20 μl of UPase reaction samples were auto-injected onto column. Mobile phase consisted of water eluting for first 2.5 ml and acetonitrile gradient to 100% in 12.5 ml (flow rate 0.5 ml/min). The outlet fluent was monitored by UV absorption in the range of 240-320 nm. UPase enzymatic activity was based on the AUC of the uracil peaks.

Chain of mouse small intestinal UPase enzyme (P52624 whole entry, looked up): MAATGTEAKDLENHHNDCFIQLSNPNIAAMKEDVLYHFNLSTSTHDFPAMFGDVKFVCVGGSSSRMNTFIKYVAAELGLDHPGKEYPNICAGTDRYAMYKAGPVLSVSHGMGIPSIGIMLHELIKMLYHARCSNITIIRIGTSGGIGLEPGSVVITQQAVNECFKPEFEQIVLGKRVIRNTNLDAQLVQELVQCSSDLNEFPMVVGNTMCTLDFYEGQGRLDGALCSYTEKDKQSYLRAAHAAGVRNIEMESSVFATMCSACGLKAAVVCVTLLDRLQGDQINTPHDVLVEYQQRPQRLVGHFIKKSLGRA

In the case of `Cc1cn2c(nc1=O)O[C@H]1[C@H](O)[C@@H](CO)O[C@H]12` [TK-112690, 2,2′-anhydro-5-methyluridine], the “effect on antiproliferative activity (cytotoxicity) of MTX” value [1] is reported as “did not diminish the cytotoxicity of MTX; also recorded: not altered”, the IC50 ([2]; 5 mM uridine, 37° C., pH 7.3, read-out: IC50, mouse small intestinal (murine) UPase) is reported as 12.5 µM and the IC50 ([2]; Table 3, murine UPase, test method of Experiment IX, read-out: UPase IC50) is reported as < 100 µM.

Reference: patent USRE48253E1, “Methotrexate adjuvants to reduce toxicity and methods for using the same” (Tosk, Inc., priority 2008, dated 2020)
